We go through six compounds from US11701332B2, “Methods and compositions for treating female sexual interest and arousal disorder” (priority 2020, dated 2023).

The structures appear in SMILES notation.

The target of data set [1] is peripheral androgen receptors (AR) (Homo sapiens, UniProt P10275). The settings on record: 450 mg darolutamide twice daily, person. On the procedure: A person diagnosed with FSIAD is administered a 30 mg testosterone enanthate injection weekly, and a dose of 450 mg of darolutamide twice daily to achieve partial (90%) AR blockage peripherally, rather than total (100%) AR blockage.
Sequence of peripheral androgen receptors (AR) (P10275 whole entry): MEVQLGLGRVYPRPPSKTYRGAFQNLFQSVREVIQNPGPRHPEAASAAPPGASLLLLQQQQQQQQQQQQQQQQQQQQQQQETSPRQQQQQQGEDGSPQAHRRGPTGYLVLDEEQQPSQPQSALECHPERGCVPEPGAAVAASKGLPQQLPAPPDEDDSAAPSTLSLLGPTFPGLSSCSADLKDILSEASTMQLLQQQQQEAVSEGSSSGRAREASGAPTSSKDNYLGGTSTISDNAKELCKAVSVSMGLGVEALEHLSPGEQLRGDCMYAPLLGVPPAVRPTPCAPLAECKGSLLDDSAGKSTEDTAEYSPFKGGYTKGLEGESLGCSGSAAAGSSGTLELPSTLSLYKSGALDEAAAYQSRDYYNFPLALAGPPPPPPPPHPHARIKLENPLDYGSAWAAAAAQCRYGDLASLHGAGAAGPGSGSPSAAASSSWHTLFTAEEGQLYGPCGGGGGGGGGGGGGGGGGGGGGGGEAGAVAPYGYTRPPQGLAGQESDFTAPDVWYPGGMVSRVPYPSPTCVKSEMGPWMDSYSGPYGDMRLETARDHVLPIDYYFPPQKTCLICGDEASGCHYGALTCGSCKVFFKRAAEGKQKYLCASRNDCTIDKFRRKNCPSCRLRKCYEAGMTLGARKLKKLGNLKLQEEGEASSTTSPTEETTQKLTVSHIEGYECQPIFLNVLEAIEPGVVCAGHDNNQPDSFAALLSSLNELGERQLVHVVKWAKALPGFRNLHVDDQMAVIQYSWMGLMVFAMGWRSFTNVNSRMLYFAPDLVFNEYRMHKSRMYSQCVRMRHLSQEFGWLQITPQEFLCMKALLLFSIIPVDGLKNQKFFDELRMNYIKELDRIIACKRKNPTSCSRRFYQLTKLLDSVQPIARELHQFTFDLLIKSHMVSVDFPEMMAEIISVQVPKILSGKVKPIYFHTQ

The conditions of data set [2]: in vivo; cited from earlier work.
The conditions of data set [3]: in vivo; cited from earlier work. The source holds these as a separate data set.
The test system of data set [4] is libido. The settings on record: after injection; cited from earlier work.
In data set [5] the test system is libido. As to conditions: biological women receiving testosterone as part of gender transition therapy; cited from earlier work.
The test system of data set [6] is libido. As to conditions: sublingual testosterone, short testosterone spike; cited from earlier work.
The conditions of data set [7]: cited from earlier work.

Regarding `CC(O)c1cc(C(=O)N[C@@H](C)Cn2ccc(-c3ccc(C#N)c(Cl)c3)n2)[nH]n1` (stereo partly drawn) [darolutamide], the AR blockage peripherally in data set [1] was found to be 90%. In addition, the “crossing of the blood-brain barrier” value in data set [2] is given as “do not cross the blood-brain barrier”. In addition, the adverse effects result in data set [3] is “does not cause major adverse effects”. In the case of `CCCC[C@H](NC(C)=O)C(=O)N[C@H]1CC(=O)NCCCC[C@@H](C(=O)O)NC(=O)[C@H](Cc2c[nH]c3ccccc23)NC(=O)[C@H](CCCN=C(N)N)NC(=O)[C@@H](Cc2ccccc2)NC(=O)[C@H](Cc2cnc[nH]2)NC1=O` [bremelanotide], the libido boost result in the data set on libido [4] is “temporary libido boost shortly after injection”. As to `C[C@]12CC[C@H]3[C@@H](CCC4=CC(=O)CC[C@@]43C)[C@@H]1CC[C@@H]2O` [testosterone], the “women reporting an increase in libido” value with libido [5] is 71%. The “time until libido boost” value in the data set on libido [6] is 3.5 h.

Take `O=c1[nH]c2ccccc2n1CCN1CCN(c2cccc(C(F)(F)F)c2)CC1` [flibanserin]: the adverse effects result in data set [3] is on record as “low blood pressure”. As to `C[C@H]1CC(=O)C[C@@H]2CC[C@H]3[C@@H]4CC[C@H](O)[C@@]4(C)CC[C@@H]3[C@]21C` [mesterolone], the oral bioavailability in data set [7] was 3%.

On to `CC(O)(CS(=O)(=O)c1ccc(F)cc1)C(=O)Nc1ccc(C#N)c(C(F)(F)F)c1` (stereo not drawn) [bicalutamide], for which, in data set [2], the “crossing of the blood-brain barrier” value is given as “do not cross the blood-brain barrier”.
